Values after ≈ are worked out from the molar mass of the structure shown.

Test in all cases: ≥ marks a high value that may be exact or a test limit, other limits are often not marked, values filed in µg/mL are converted to µM
For assay [1], the system named is Staphylococcus aureus ATCC 25923.
Assay [2] relates to Pseudomonas aeruginosa ATCC 9027.
The test system of assay [3] is Acinetobacter baumannii.
Assay [4] has as its system Escherichia coli ATCC 25922.
The subject of assay [5] is Klebsiella pneumoniae ATCC 700603.
The subject of assay [6] is Candida albicans ATCC 2002.
Assay [7] relates to Staphylococcus epidermidis.
Assay [8] relates to Staphylococcus aureus.
In assay [9] the test system is Candida albicans ATCC 90028.
In assay [10] the test system is Staphylococcus aureus ATCC 6538.

Consider `CC[C@H](C)[C@H](NC(=O)[C@@H](NC(=O)[C@H](CCCCN)NC(=O)[C@H](CCCCN)NC(=O)[C@H](CC(C)C)NC(=O)CN)C(C)C)C(=O)N[C@@H](CCCCN)C(=O)N[C@@H](CC(C)C)C(=O)N[C@@H](CC(C)C)C(=O)N[C@@H](CCCN=C(N)N)C(=O)N1CCC[C@H]1C(=O)N[C@@H](CC(C)C)C(=O)N[C@@H](CC(C)C)C(=O)O` [GLKKVIKLLRPLL], for which the MIC – broadly, the lowest concentration that inhibits growth of the organism – in assay [1] is 32 µM (≈ 47.7 µg/mL); in assay [2], 16 µM (≈ 23.9 µg/mL); in assay [3] it was ≥ 32 µM; in assay [4] it was > 64 µM; in [5], > 64 µM.

As for `CC[C@H](C)[C@H](NC(=O)[C@@H](NC(=O)[C@@H](NC(=O)[C@@H]1CCCN1C(=O)[C@H](Cc1c[nH]c2ccccc12)NC(=O)[C@H](Cc1ccccc1)NC(=O)[C@H](CCCN=C(N)N)NC(=O)[C@H](CCCCN)NC(=O)[C@@H](NC(=O)[C@@H](N)CCCN=C(N)N)[C@@H](C)CC)C(C)C)C(C)C)C(=O)N[C@@H](CCCN=C(N)N)C(=O)N[C@H](C(=O)N[C@H](C(=O)N[C@H](C(=O)N[C@@H](C)C(=O)NCC(=O)N[C@@H](Cc1ccc(O)cc1)C(=O)N[C@@H](CC(N)=O)C(=O)O)C(C)C)C(C)C)[C@@H](C)O` [RIKRFWPVVIRTVVAGYN], in assay [6], the MIC was ≥ 69 µM.

For the compound `CC[C@H](C)[C@H](NC(=O)[C@H](CC(=O)O)NC(=O)[C@@H](NC(=O)[C@H](CCCCN)NC(=O)[C@H](Cc1ccccc1)NC(=O)[C@@H]1CCCN1)[C@@H](C)CC)C(=O)N[C@@H](Cc1cnc[nH]1)C(=O)N[C@@H](CC(C)C)C(=O)NCC(=O)NCC(=O)N[C@@H](Cc1ccc(O)cc1)C(N)=O` [PFKIDIHLGGY], in [7], the MIC is 23.8 µM (≈ 30 µg/mL).

Turning to `CC[C@H](C)[C@H](NC(=O)[C@H](CCCCN)NC(=O)[C@H](Cc1ccccc1)NC(=O)[C@H](C)NC(=O)[C@H](CCCCN)NC(=O)CNC(=O)[C@H](CC(C)C)NC(=O)[C@H](CC(C)C)NC(=O)[C@H](CO)NC(=O)CNC(=O)[C@H](CC(C)C)NC(=O)CN)C(=O)NCC(=O)N[C@@H](CC(C)C)C(=O)N[C@@H](CCCCN)C(=O)N[C@H](C(=O)N[C@H](C(=O)NCC(=O)N[C@@H](CCCCN)C(=O)N[C@@H](CCSC)C(=O)N[C@@H](CCSC)C(=O)NCC(=O)NCC(=O)N[C@@H](C)C(=O)N1CCC[C@H]1C(=O)N[C@@H](CCCNC(=N)N)C(=O)N[C@@H](CCC(=O)O)C(=O)N[C@@H](CCC(N)=O)C(=O)O)C(C)C)[C@@H](C)O` [GLGSLLGKAFKIGLKTVGKMMGGAPREQ], the minimum inhibitory concentration (MIC) in assay [1] came out at 5 µM (≈ 14.2 µg/mL); in assay [8], 5.66 µM (≈ 16.1 µg/mL); in assay [3], 5.66 µM (≈ 16.1 µg/mL); in [4], 5 µM (≈ 14.2 µg/mL); in [9] it was 25 µM (≈ 71.1 µg/mL).

With `CC[C@H](C)[C@H](NC(=O)[C@@H](NC(=O)[C@@H]1CCCN1C(=O)[C@@H](NC(=O)[C@@H]1CCCN1C(=O)[C@H](CCCCN)NC(=O)[C@H](CCCCN)NC(=O)[C@H](CO)NC(=O)CN)C(C)C)[C@@H](C)CC)C(=O)N[C@@H](Cc1ccc(O)cc1)C(=O)N[C@H]1CSSC[C@@H](C(=O)N[C@@H](CCC(N)=O)C(=O)N[C@@H](CCCN=C(N)N)C(=O)N[C@@H](CCSC)C(=O)O)NC(=O)[C@H](CCCCN)NC(=O)[C@H](C)NC(=O)[C@H]([C@@H](C)O)NC(=O)[C@H](CCCN=C(N)N)NC(=O)[C@H](CCCN=C(N)N)NC(=O)[C@H](CC(N)=O)NC1=O` [GSKKPVPIIYCNRRTAKCQRM], the minimum inhibitory concentration (MIC) in assay [4] and in assay [5] was 6.53 µM (≈ 16 µg/mL) each time.

Compound `CC(C)C[C@H](NC(=O)CNC(=O)[C@@H](NC(=O)[C@@H]1CCCN1C(=O)[C@H](CC(C)C)NC(=O)CNC(=O)[C@H](CC(N)=O)NC(=O)[C@H](CC(N)=O)NC(=O)[C@H](Cc1ccccc1)NC(=O)[C@@H](NC(=O)[C@H](CCCN=C(N)N)NC(=O)[C@H](CS)NC(=O)[C@H](CCCN=C(N)N)NC(=O)[C@H](Cc1cnc[nH]1)NC(=O)[C@H](CCCCN)NC(=O)[C@H](CCCCN)NC(=O)[C@H](CCCN=C(N)N)NC(=O)[C@@H](N)CCCCN)C(C)C)[C@@H](C)O)C(=O)N[C@@H](Cc1ccc(O)cc1)C(=O)N[C@@H](CCCN=C(N)N)C(=O)N[C@@H](Cc1c[nH]c2ccccc12)C(=O)N[C@@H](CS)C(N)=O` [KRKKHRCRVFNNGLPTGLYRWC] returned an MIC in [10] of 4.1 µM (≈ 11.2 µg/mL).

The record behind these values is DBAASP.
